Test results: patent US10301299B2, “Glycosidase inhibitors” (Merck Patent GmbH, priority 2013, dated 2019)
Like-named read-outs stand apart in the source and are kept apart here.

What was measured:
His-Tagged hOGA = molecular target: T1, His-Tagged hOGA (Homo sapiens, UniProt O60502); assay: Human O-GlcNAcase enzyme inhibition assay; type: biochemical
T1 sequence (O60502 1-916): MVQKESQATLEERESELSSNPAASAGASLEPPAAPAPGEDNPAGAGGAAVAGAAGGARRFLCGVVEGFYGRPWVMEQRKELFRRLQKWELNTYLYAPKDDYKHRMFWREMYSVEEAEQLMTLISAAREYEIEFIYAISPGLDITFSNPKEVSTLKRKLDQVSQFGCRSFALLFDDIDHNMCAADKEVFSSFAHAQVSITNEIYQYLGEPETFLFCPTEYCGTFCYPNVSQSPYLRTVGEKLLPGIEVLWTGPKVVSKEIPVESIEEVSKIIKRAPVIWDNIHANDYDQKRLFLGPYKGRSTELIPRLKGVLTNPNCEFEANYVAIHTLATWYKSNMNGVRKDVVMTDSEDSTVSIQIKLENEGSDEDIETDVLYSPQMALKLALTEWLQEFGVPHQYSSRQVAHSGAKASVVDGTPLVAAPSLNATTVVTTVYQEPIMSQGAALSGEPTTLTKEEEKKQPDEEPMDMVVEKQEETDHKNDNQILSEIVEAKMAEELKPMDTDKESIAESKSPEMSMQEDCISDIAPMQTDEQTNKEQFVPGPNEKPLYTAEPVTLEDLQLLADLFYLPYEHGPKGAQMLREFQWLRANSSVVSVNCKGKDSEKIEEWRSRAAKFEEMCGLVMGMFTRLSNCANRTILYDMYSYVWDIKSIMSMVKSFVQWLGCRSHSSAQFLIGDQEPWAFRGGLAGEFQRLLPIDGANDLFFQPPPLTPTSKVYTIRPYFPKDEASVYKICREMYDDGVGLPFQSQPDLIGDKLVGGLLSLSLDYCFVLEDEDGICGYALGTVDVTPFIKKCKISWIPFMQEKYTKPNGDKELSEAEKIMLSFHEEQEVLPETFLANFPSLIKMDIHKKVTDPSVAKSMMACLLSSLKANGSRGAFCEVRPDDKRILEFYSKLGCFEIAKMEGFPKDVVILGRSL
Procedure: The following reaction components were added to a final volume of 10 μL in Mcllvaine's Buffer (pH 6.5): 20 nM His-Tagged hOGA and 10 μM Fluorescein mono-beta-D-(2-deoxy-2-N-acetyl) glucopyranoside (FL-GlcNAc; Marker Gene Technologies Inc, Part # M1485). […] The amount of fluorescence measured was plotted against the concentration of inhibitor to produce a sigmoidal dose response curve, from which an IC50 was calculated.

[1] = system: B35 rat neuroblastoma cells; assay: Cellular O-GlcNAcylation assay (tau O-GlcNAc S400, ICC); type: cell-based; details: Neuroblastoma cell, 16 h, tau O-GlcNAcylated at serine 400
Procedure: The following day cells were treated with appropriate concentration of a solution of inhibitor for 16 h at 37° C. in 5% CO2. Cells were fixed in 100 μl 4% paraformaldehyde for 15 min at room temperature, followed by three washes in PBS buffer. The cells were then permeabilized with 0.1% Triton X-100 for 60 min at room temperature. After three washes in PBS the cells were blocked with 10% goat serum containing 1% BSA in PBS buffer for two hours at room temperature. The cells were then incubated with a monoclonal rabbit antibody specific for tau O-GlcNAcylated at serine 400 (Epitomics) at a 1:1000 dilution overnight at 4° C. […] To calculate an EC50 the total peak intensity was plotted against the concentration of inhibitor to produce a sigmoidal dose response curve.

[2] = 20 nM His-Tagged hOGA, 10 μM FL-GlcNAc, pH 6.5, 60 min, read-out: hOGA enzyme inhibition (IC50)

SMILES | IC50 (His-Tagged hOGA; [2]) | EC50 [1] | IC50 (His-Tagged hOGA)
CC(=O)Nc1ncc(CN(C)CCCc2ccccc2)s1 [Compound 21, N-(5-{[methyl-(3-phenyl-propyl)-amino]-methyl}-thiazol-2-yl)-acetamide] | < 200 nM | 1000 to 10000 nM | 
CC(=O)Nc1ncc(CN2CC(c3ccccc3)C2)s1 [Compound 22, N-[5-(3-phenyl-azetidin-1-ylmethyl)-thiazol-2-yl]-acetamide] | 200 to 1000 nM | 1000 to 10000 nM | 
CC(=O)Nc1ncc(CN2CCCCC2)s1 [Compound 25, N-(5-piperidin-1-ylmethyl-thiazol-2-yl)-acetamide] | 1000 to 10000 nM | 200 to 1000 nM | 
CC(=O)Nc1ncc(CN2CCC(C(C)C)CC2)s1 [Compound 26, N-[5-(4-isopropylpiperidin-1-ylmethyl)thiazol-2-yl]-acetamide] | < 200 nM | 1000 to 10000 nM | 
CC(=O)Nc1ncc(CN2CCC(C3CCCCC3)CC2)s1 [Compound 27, N-(5-((4-cyclohexylpiperidin-1-yl)methyl)thiazol-2-yl)acetamide] | < 200 nM | < 200 nM | 
CC(=O)Nc1ncc(CN2CCC(Cc3ccccc3)CC2)s1 [Compound 28, N-(5-((4-benzylpiperidin-1-yl)methyl)thiazol-2-yl)acetamide] |  | < 200 nM | < 200 nM
CC(=O)Nc1ncc(CN2CCCC(c3ccccc3)C2)s1 (stereo not drawn) [Compound 29, N-(5-((3-phenylpiperidin-1-yl)methyl)thiazol-2-yl)acetamide] | < 200 nM | 1000 to 10000 nM | 
CC(=O)Nc1ncc(CN2CCC(c3ccccc3F)CC2)s1 [Compound 30, N-(5-((4-(2-fluorophenyl)piperidin-1-yl)methyl)thiazol-2-yl)acetamide] | 200 to 1000 nM | 200 to 1000 nM | 
CC(=O)Nc1ncc(CN2CCC(c3cccc(C)c3)CC2)s1 [Compound 31, N-(5-((4-(m-tolyl)piperidin-1-yl)methyl)thiazol-2-yl)acetamide] | < 200 nM | < 200 nM | 
COc1cccc(C2CCN(Cc3cnc(NC(C)=O)s3)CC2)c1 [Compound 32, N-(5-((4-(3-methoxyphenyl)piperidin-1-yl)methyl)thiazol-2-yl)acetamide] | < 200 nM | 200 to 1000 nM | 
COc1ccccc1C1CCN(Cc2cnc(NC(C)=O)s2)CC1 [Compound 33, N-(5-((4-(2-methoxyphenyl)piperidin-1-yl)methyl)thiazol-2-yl)acetamide] | 200 to 1000 nM | 200 to 1000 nM | 
CC(=O)Nc1ncc(CN2CCC(c3ccccc3C#N)CC2)s1 [Compound 35, N-(5-((4-(2-cyanophenyl)piperidin-1-yl)methyl)thiazol-2-yl)acetamide] | 1000 to 10000 nM | 200 to 1000 nM | 
CC(=O)Nc1ncc(CN2CCC(c3ccc(C#N)cc3)CC2)s1 [Compound 36, N-(5-((4-(4-cyanophenyl)piperidin-1-yl)methyl)thiazol-2-yl)acetamide] | 200 to 1000 nM | 200 to 1000 nM | 
CC(=O)Nc1ncc(CN2CCC(c3ccccc3O)CC2)s1 [Compound 37, N-(5-((4-(2-hydroxyphenyl)piperidin-1-yl)methyl)thiazol-2-yl)acetamide] | 200 to 1000 nM | < 200 nM | 
CC(=O)Nc1ncc(CN2CCC(c3ccc(O)cc3)CC2)s1 [Compound 38, N-(5-((4-(4-hydroxyphenyl)piperidin-1-yl)methyl)thiazol-2-yl)acetamide] | < 200 nM | 200 to 1000 nM | 
CC(=O)Nc1ncc(CN2CCC(c3cccc(O)c3)CC2)s1 [Compound 39, N-(5-((4-(3-hydroxyphenyl)piperidin-1-yl)methyl)thiazol-2-yl)acetamide] | 200 to 1000 nM | 200 to 1000 nM | 
CC(=O)Nc1ncc(C(C)N2CCC(c3ccccc3)CC2)s1 (stereo not drawn) [Compound 40, N-(5-(1-(4-phenylpiperidin-1-yl)ethyl)thiazol-2-yl)acetamide] | 200 to 1000 nM | 200 to 1000 nM | 
CC(=O)Nc1ncc(CN2CCC(F)(c3ccccc3)CC2)s1 [Compound 41, N-[5-(4-fluoro-4-phenyl-piperidin-1-ylmethyl)-thiazol-2-yl]-acetamide] | 1000 to 10000 nM | 1000 to 10000 nM | 
CC(=O)Nc1ncc(CN2CCC(c3ccc(F)cc3)CC2)s1 [Compound 42, N-(5-((4-(4-fluorophenyl)piperidin-1-yl)methyl)thiazol-2-yl)acetamide] | 200 to 1000 nM | 200 to 1000 nM | 
CC(=O)Nc1ncc(CN2CCC(c3ccccc3C)CC2)s1 [Compound 43, N-(5-((4-(o-tolyl)piperidin-1-yl)methyl)thiazol-2-yl)acetamide] | 1000 to 10000 nM | 200 to 1000 nM | 
CC(=O)Nc1ncc(CN2CCC(c3ccc(C(=O)O)cc3)CC2)s1 [Compound 45, 4-(1-((2-acetamidothiazol-5-yl)methyl)piperidin-4-yl)benzoic acid] | 200 to 1000 nM | 1000 to 10000 nM | 
